The values that follow come from PubChem BioAssay (NCI).

“And” between values parts separate entries of the source, which are not always exact repeats. Equal entries are not always repeated.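 Following 48 hours of exposure in 96-well plates, responses at five concentrations were used to interpolate endpoints linearly. GI50 is the concentration that inhibits growth by half. TGI: total growth inhibition.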

Among the test systems are ACHN renal; T-47D breast; SW-620 colon; HOP-62 NSCLC; HT29 colon; MALME-3M melanoma; HOP-92 NSCLC; LOX IMVI melanoma; MDA-MB-435; A498 renal.
Assay in all cases: NCI tumour cell line growth inhibition, 48 h

As to `CC1=C(CCC(C)NCc2ccc(OCCCN3CCCCC3)cc2)C(C)(C)CCC1` (stereo not given), the GI50 in the assay with ACHN renal is 1.69 µM; in the assay with T-47D breast it was 1.63 µM; in the assay with SW-620 colon, 1.6 µM; in the assay with HOP-62 NSCLC, 1.84 µM; with HT29 colon, 0.384 µM; in the assay on MALME-3M melanoma, 1.6 µM. The GI50 in the assay on HOP-92 NSCLC is 1.26 µM; with LOX IMVI melanoma, 1.44 µM; in the assay on MDA-MB-435, 0.216 µM; in the assay on A498 renal, 1.43 µM. The TGI worked out at 3.17 µM with ACHN renal; 3.65 µM with T-47D breast; 3.32 µM in the assay on SW-620 colon; 3.64 µM in the assay on HOP-62 NSCLC; 1.38 µM in the assay with HT29 colon; 3.29 µM in the assay with MALME-3M melanoma. The TGI in the assay with HOP-92 NSCLC is 2.72 µM; in the assay on LOX IMVI melanoma, 2.85 µM; in the assay with MDA-MB-435, 0.528 µM; in the assay on A498 renal, 2.95 µM.
With `O1[As]2O[As]3O[As]1O[As](O2)O3`, the GI50 in the assay with ACHN renal was 2.54 µM; in the assay with T-47D breast, 0.474 µM; in the assay on SW-620 colon it was 0.577 µM; in the assay with HOP-62 NSCLC, 1 µM; with HT29 colon, 0.876 µM; with MALME-3M melanoma, 0.477 µM. Moreover, the GI50 in the assay on HOP-92 NSCLC is 0.238 µM; in the assay on LOX IMVI melanoma, 0.657 µM; in the assay on MDA-MB-435 it was 1.64 µM; with A498 renal, 0.0875 µM. Besides, the TGI in the assay on ACHN renal worked out at 11.2 µM; in the assay on T-47D breast it was 12.6 µM; in the assay on SW-620 colon it was 4.54 µM; in the assay with HOP-62 NSCLC it was 2.55 µM; in the assay on HT29 colon, 4.67 µM; with MALME-3M melanoma it was 2.08 µM. For the same compound, the TGI in the assay with HOP-92 NSCLC worked out at 0.897 µM; with LOX IMVI melanoma, 2.13 µM; in the assay with MDA-MB-435, 7.69 µM; in the assay on A498 renal, 0.352 µM.
`NCCN.O=C([O-])CN1CCOCC1.[OH-].[Pt+4]`: the GI50 in the assay with ACHN renal, in the assay with T-47D breast, with SW-620 colon, in the assay with HOP-62 NSCLC, in the assay with HT29 colon and in the assay with MALME-3M melanoma was above 100 µM each time. Also, the GI50 with HOP-92 NSCLC, in the assay on LOX IMVI melanoma, with MDA-MB-435 and in the assay with A498 renal was above 100 µM each time. The TGI in the assay on ACHN renal, with T-47D breast, with SW-620 colon, in the assay on HOP-62 NSCLC, in the assay with HT29 colon and with MALME-3M melanoma was above 100 µM each time. The TGI in the assay with HOP-92 NSCLC, with LOX IMVI melanoma, in the assay with MDA-MB-435 and in the assay with A498 renal was above 100 µM each time.
Consider `NC(=O)c1ccc(-c2nc(-c3ccc4c(c3)OCO4)c(-c3ccccn3)[nH]2)cc1`, for which the GI50 with ACHN renal is > 25 µM and 34 µM; in the assay with T-47D breast it was > 25 µM and 21.8 µM; in the assay on SW-620 colon, > 25 µM and 65.6 µM; in the assay on HOP-62 NSCLC, > 25 µM and 43 µM; in the assay with HT29 colon, > 25 µM and 28.3 µM; in the assay on MALME-3M melanoma, > 25 µM and 38.2 µM. In addition, the GI50 was > 25 µM and 11.4 µM in the assay with HOP-92 NSCLC; > 25 µM and 26.9 µM with LOX IMVI melanoma; > 25 µM and 38.6 µM with MDA-MB-435; > 25 µM and 27.2 µM in the assay on A498 renal. Also, the TGI with ACHN renal was above 100 µM; in the assay with T-47D breast, above 100 µM; in the assay on SW-620 colon, above 100 µM; with HOP-62 NSCLC it was above 100 µM; in the assay on HT29 colon it was above 93.8 µM; in the assay with MALME-3M melanoma, above 100 µM. For the same compound, the TGI was above 84.6 µM in the assay with HOP-92 NSCLC, above 84.4 µM in the assay with LOX IMVI melanoma, above 100 µM in the assay with MDA-MB-435 and above 79.3 µM with A498 renal.
Regarding `Nc1c(C(=O)c2cccc(-c3cccnc3)c2)cnn1-c1ccc(F)cc1F`, the GI50 in the assay on ACHN renal is 6.92 µM; in the assay with T-47D breast, 1.57 µM; in the assay with SW-620 colon, 1.27 µM; in the assay on HOP-62 NSCLC it was 5.49 µM; in the assay on HT29 colon, 1.05 µM; with MALME-3M melanoma, 2.26 µM. In addition, the GI50 is 1.94 µM in the assay with HOP-92 NSCLC, 5.76 µM in the assay with LOX IMVI melanoma, 0.476 µM in the assay on MDA-MB-435 and 2.64 µM in the assay on A498 renal. Besides, the TGI was above 25 µM in the assay with ACHN renal; above 25 µM in the assay on T-47D breast; above 25 µM in the assay with SW-620 colon; above 25 µM in the assay with HOP-62 NSCLC; above 25 µM in the assay with HT29 colon; above 20.9 µM in the assay on MALME-3M melanoma. Further, the TGI was 17.4 µM in the assay on HOP-92 NSCLC, above 25 µM in the assay with LOX IMVI melanoma, 1.36 µM with MDA-MB-435 and above 23 µM in the assay with A498 renal.
For the compound `NC(=O)Nc1cc(-c2cccc(F)c2)sc1C(=O)N[C@H]1CCCNC1`, the GI50 is 0.0512 µM and 0.0952 µM in the assay with ACHN renal; 1.07 µM and 2.71 µM in the assay on T-47D breast; 0.284 µM and 0.423 µM in the assay with SW-620 colon; 0.0876 µM and 0.292 µM in the assay on HOP-62 NSCLC; 0.25 µM and 0.282 µM in the assay with HT29 colon; 0.232 µM and 0.729 µM in the assay with MALME-3M melanoma. In addition, the GI50 in the assay with HOP-92 NSCLC was 0.0553 µM and 0.416 µM; in the assay on LOX IMVI melanoma, 0.0603 µM and 0.199 µM; in the assay with MDA-MB-435, 0.069 µM and 0.181 µM; in the assay on A498 renal, 0.0173 µM and 0.0385 µM. For the same compound, the TGI is > 4.73 µM and 2.75 µM with ACHN renal; > 10 µM and 18.8 µM in the assay on T-47D breast; > 5.03 µM and 3.36 µM with SW-620 colon; 1.67 µM and 2.82 µM in the assay on HOP-62 NSCLC; > 10 µM and 1.37 µM with HT29 colon; 4.95 µM and 6.8 µM in the assay on MALME-3M melanoma. Also, the TGI in the assay with HOP-92 NSCLC was 1.2 µM and 1.71 µM; in the assay on LOX IMVI melanoma it was 1.04 µM and 1.12 µM; in the assay on MDA-MB-435, 0.371 µM and 0.668 µM; in the assay with A498 renal, 0.0984 µM and 0.194 µM.
With `CN(C)CC1CCC2=C(C1=O)C(c1ccc(Cl)c(Cl)c1)C1=C(CCC(CN(C)C)C1=O)O2` (stereo not given), the GI50 is 14.3 µM in the assay on ACHN renal; 2.05 µM with T-47D breast; 2.47 µM with SW-620 colon; 12.5 µM with HOP-62 NSCLC; 8.57 µM with HT29 colon; 14.9 µM in the assay on MALME-3M melanoma. Besides, the GI50 was 11.3 µM with HOP-92 NSCLC, 3.14 µM in the assay on LOX IMVI melanoma, 4.81 µM with MDA-MB-435 and 14.3 µM in the assay on A498 renal. Also, the TGI in the assay with ACHN renal amounted to 27.3 µM; in the assay on T-47D breast, 7.9 µM; in the assay on SW-620 colon, 16.9 µM; with HOP-62 NSCLC, 25.2 µM; with HT29 colon, 22.4 µM; in the assay on MALME-3M melanoma, 29.5 µM. Moreover, the TGI with HOP-92 NSCLC turned out to be 25.5 µM; in the assay on LOX IMVI melanoma, 15.2 µM; with MDA-MB-435, 17.5 µM; in the assay with A498 renal, 27.4 µM.
Consider `C#CCNCCN1C(=O)c2ccc3c4c(ccc(c24)C1=O)C(=O)N(CCNCC#C)C3=O`, for which the GI50 in the assay with ACHN renal was 2.63 µM; in the assay on T-47D breast it was 4.16 µM; in the assay with SW-620 colon, 1.92 µM; in the assay with HOP-62 NSCLC, 4.1 µM; in the assay with HT29 colon, 1.65 µM; in the assay on MALME-3M melanoma, 0.903 µM. The GI50 in the assay on HOP-92 NSCLC is 7.39 µM; in the assay on LOX IMVI melanoma, 1.76 µM; with MDA-MB-435 it was 1.52 µM; with A498 renal, 7.14 µM. The TGI was determined as 9.8 µM with ACHN renal; 14.8 µM with T-47D breast; 11.8 µM in the assay with SW-620 colon; 14.9 µM in the assay on HOP-62 NSCLC; 6.2 µM in the assay with HT29 colon; 3.14 µM in the assay with MALME-3M melanoma. Further, the TGI with HOP-92 NSCLC was determined as 22.9 µM; in the assay with LOX IMVI melanoma, 8.08 µM; in the assay on MDA-MB-435, 5.85 µM; in the assay with A498 renal, 14.1 µM.
In the case of `O=C1NOC(c2ccc(O)cc2)(c2ccc(O)cc2)c2ccccc21`, the GI50 in the assay on ACHN renal, in the assay with T-47D breast, with SW-620 colon, in the assay on HOP-62 NSCLC, with HT29 colon and in the assay on MALME-3M melanoma was above 100 µM throughout. Also, the GI50 in the assay on HOP-92 NSCLC, in the assay with LOX IMVI melanoma, in the assay with MDA-MB-435 and in the assay with A498 renal was above 100 µM each time. Moreover, the TGI with ACHN renal, in the assay with T-47D breast, in the assay on SW-620 colon, in the assay on HOP-62 NSCLC, with HT29 colon and in the assay on MALME-3M melanoma was above 100 µM in each case. Further, the TGI in the assay on HOP-92 NSCLC, with LOX IMVI melanoma, with MDA-MB-435 and with A498 renal was above 100 µM in each case.
Take `Cc1cn2c(/C=C3/C(=O)Nc4ccc(O)cc43)c(C)nc2s1`: the GI50 in the assay on ACHN renal is 5.72 µM; in the assay on T-47D breast, 2.64 µM; in the assay with SW-620 colon, 2.88 µM; in the assay on HOP-62 NSCLC, 2.89 µM; in the assay on HT29 colon it was 2.47 µM; with MALME-3M melanoma it was 0.946 µM. Further, the GI50 with HOP-92 NSCLC is 0.373 µM; in the assay with LOX IMVI melanoma, 4.46 µM; with MDA-MB-435, 0.169 µM; in the assay with A498 renal, 19.1 µM. Further, the TGI in the assay with ACHN renal is 62.8 µM; in the assay on T-47D breast it was 25.5 µM; in the assay on SW-620 colon, above 100 µM; with HOP-62 NSCLC, above 68 µM; with HT29 colon it was above 100 µM; in the assay with MALME-3M melanoma, 19.5 µM. The TGI in the assay with HOP-92 NSCLC stood at 8.87 µM; with LOX IMVI melanoma, 99.6 µM; in the assay on MDA-MB-435, 1.15 µM; in the assay with A498 renal it was 67.7 µM.
On to `Cc1nn(C)c(COc2ccc(N3CCN(S(=O)(=O)N(C)C)CC3)cc2)c1-c1cccc2c(CCCOc3cccc4ccccc34)c(C(=O)O)n(CCN3CCOCC3)c12`, for which the GI50 was 4.03 µM in the assay with ACHN renal; 2.4 µM with T-47D breast; 3.59 µM in the assay on SW-620 colon; 3.03 µM in the assay on HOP-62 NSCLC; 2.63 µM with HT29 colon; 3.15 µM in the assay with MALME-3M melanoma. The GI50 with HOP-92 NSCLC was 2.01 µM; in the assay with LOX IMVI melanoma, 3.16 µM; in the assay with MDA-MB-435, 3.4 µM; in the assay on A498 renal it was 2.3 µM. In addition, the TGI in the assay with ACHN renal came out at 15.7 µM; in the assay with T-47D breast it was 9.38 µM; in the assay on SW-620 colon, 15 µM; with HOP-62 NSCLC, 14.4 µM; in the assay on HT29 colon, 6.92 µM; with MALME-3M melanoma it was 15.5 µM. For the same compound, the TGI in the assay on HOP-92 NSCLC worked out at 6.56 µM; in the assay on LOX IMVI melanoma it was 11.6 µM; with MDA-MB-435 it was 12 µM; with A498 renal, 6.59 µM.
